Assay results published in patent publication US20260217701A1, “SELECTIVE BET INHIBITORS AND USES THEREOF” (Tay Therapeutics Limited, priority 2022, published 2026).
Where “and” joins values, the source holds several entries; their conditions need not be identical. Equal values may be shown once.

Experiment: Dog PK study #3 (Compound A PO once daily 5 days, 5/10/20 mg/kg; PK, body weight, hematology)
Format: in vivo, beagle dogs
Parameters: Plasma Concentration: unit not given here
Settings: for Neutrophils: range 1.80-10.83; for White Blood Cells: range 4.81-15.67; for Platelets: range 127-393; for Accumulative Index of AUC0-last (Day 5/Day 1) / Accumulative Index of Cmax (Day 5/Day 1): PO
Method: For the third dog pharmacokinetic study, three solutions of different concentrations of Compound A were prepared in 5% DMSO/15% PEG-400/80% (10% VE-TPGS) as outlined in Table 2E. The Compound A solutions were administered to animals orally (PO) once daily over a five-day period. Body weight was recorded prior to dosing, and detailed clinical observations were made prior to dosing and throughout the study, as needed.
Animals were divided into Day 1 and Day 5 sample collection groups, with animals in the Day 1 collection group having blood samples taken prior to dosing and at 0.25, 0.5, 1, 2, 4, 8, and 24 hours after dosing on day 1. Animals in the Day 5 collection group having blood samples taken prior to dosing and at 0.25, 0.5, 1, 2, 4, 8, and 24 hours after dosing on day 5. Study groups are outlined in Table 3D.
Blood samples (~0.3 mL) were collected on day according to the following schedule (0.25, 0.5, 1, 2, 4, 8, and 24 h) after day 5 administration of Compound A by venipuncture of peripheral veins except for the dosing vein, and EDTA-K2 was used as anticoagulant. Within 30 minutes of collection, the samples were centrifuged at approximately 2000 times g-force for 10 minutes at 4° C. to obtain blood plasma. The plasma samples were immediately divided into two aliquots (~75 μL each), transferred to a cryogenic vial, and stored in a freezer at −75±15° C. prior to analysis.
The concentration of Compound A in the blood plasma was determined through LC-MS as previously described. Briefly, the experiments were conducted on a DMPK-LCMS-14-SMBA Triple Quad 6500 Plus instrument with an ACQUITY UPLC BEH C18 1.7 μm (50×2.1 mm) column. The matrix was male beagle dog plasma potassium (K2) EDTA A gradient of 95% water (0.1% formic acid and 2 mM HCOONH4)/95% acetonitrile (0.1% formic acid and 2 mM HCOONH4) was used as the mobile phase. The sample flow rate was 0.6 mL/min.
The samples were then vortex-mixed for 10 minutes at 800 rpm and centrifuged for 15 minutes at 3220×g at 4° C. 50 μL aliquots of supernatant were transferred to a clean 96-well plate and centrifuged for 5 minutes at 3220×g at 4° C. Samples were then injected into the LC/MS/MS system for quantitative analysis.
The gathered data were used for pharmacokinetic calculations using T1/2, CO, AUClast, AUCinf, MRTinf, Cl, Vss, and Number of Points for Regression as parameters.
The cell composition (hematology) of blood samples was analyzed at day 5. Analyses identified the total number of white blood cells, neutrophils, lymphocytes, monocytes, eosinophils, basophils, and platelets in collected samples.

[1] = Day 5, 10 mg/kg dose PO, individual animals
[2] = Day 5, 20 mg/kg dose PO, individual animals
[3] = Day 5, Group 1, individual animals
[4] = Day 5, Group 2, individual animals
[5] = Day 5, Group 3, individual animals

With Cn1cc(-c2ccccc2)c(-c2cn(C)c(=O)c3[nH]c(-c4cnn(C(F)(F)F)c4)cc23)cc1=O [Compound A, 6-methyl-4-(1-methyl-2-oxo-5-phenyl-1,2-dihydropyridin-4-yl)-2-(1-(trifluoromethyl)-1H-pyrazol-4-yl)-1,6-dihydro-7H-pyrrolo[2,3-c]pyridin-7-one] the Neutrophils (Day 5, 5 mg/kg/day (mean)) was 7.08 10^3/μL, the “White Blood Cells” value (Day 5, 5 mg/kg/day (mean)) was 10.59 103/μL and the Platelets (Day 5, 5 mg/kg/day (mean)) was 224.0 10^3/μL. For the same compound, the “Plasma Concentration” value (Day 5, 10 mg/kg dose PO, time 1, individual animals) was 1610 and 2220, the “Plasma Concentration” value (Day 5, 10 mg/kg dose PO, time 1, mean) was 1915 and the “Plasma Concentration” value (Day 5, 10 mg/kg dose PO, time 2, individual animals) was 1740 and 2780. The “Plasma Concentration” value (Day 5, 10 mg/kg dose PO, time 2, mean) was 2260, the “Plasma Concentration” value (Day 5, 10 mg/kg dose PO, time 4, individual animals) was 1460 and 2310 and the “Plasma Concentration” value (Day 5, 10 mg/kg dose PO, time 4, mean) was 1885. For the same compound, the “Plasma Concentration” value (Day 5, 10 mg/kg dose PO, time 8, individual animals) was 1190 and 1940, the “Plasma Concentration” value (Day 5, 10 mg/kg dose PO, time 8, mean) was 1565 and the AUC0-last [1] was 36.083 µg·h/mL. The AUC(0-inf) [1] was 45.289 µg·h/mL, the AUCExtra [1] was 10.6% and 20.3% and the AUMCExtra [1] was 32.6% and 51.3%. For the same compound, the Cl_F [1] was 7.25 mL/min/kg and 3.68 mL/min/kg, the Cmax [1] was 2780 ng/mL and the MRT0-inf [1] was 15.4 h. It also gave an MRT0-last [1] of 9.39 h, a Tlast [1] of 24.0 h and a T½ [1] of 10.3 h. The Vz_F [1] was 4.58 L/kg and 3.27 L/kg, the AUC0-last (Day 5, 10 mg/kg dose PO, mean) was 28.307 µg·h/mL and the AUCExtra (Day 5, 10 mg/kg dose PO, mean) was 15.5%. For the same compound, the AUMCExtra (Day 5, 10 mg/kg dose PO, mean) was 42.0%, the Cl_F (Day 5, 10 mg/kg dose PO, mean) was 5.47 mL/min/kg and the Tlast (Day 5, 10 mg/kg dose PO, mean) was 24.0 h. For the same compound, the Vz_F (Day 5, 10 mg/kg dose PO, mean) was 3.92 L/kg, the Basophils (Day 5, 10 mg/kg/day (mean), range 0.00-0.19) was 0.07 10^3/μL and the Eosinophils (Day 5, 10 mg/kg/day (mean), range 0.00-1.24) was 0.40 10^3/μL. The Monocytes (Day 5, 10 mg/kg/day (mean), range 0.11-1.08) was 0.48 10^3/μL, the Lymphocytes (Day 5, 10 mg/kg/day (mean), range 1.42-3.76) was 3.31 10^3/μL and the Neutrophils (Day 5, 10 mg/kg/day (mean)) was 6.59 10^3/μL. The “White Blood Cells” value (Day 5, 10 mg/kg/day (mean)) was 10.86 103/μL, the Platelets (Day 5, 10 mg/kg/day (mean)) was 273.0 10^3/μL and the “Plasma Concentration” value (Day 5, 20 mg/kg dose PO, time 1, individual animals) was 3150 and 2130. The “Plasma Concentration” value (Day 5, 20 mg/kg dose PO, time 1, mean) was 2640, the “Plasma Concentration” value (Day 5, 20 mg/kg dose PO, time 2, individual animals) was 3510 and 2220 and the “Plasma Concentration” value (Day 5, 20 mg/kg dose PO, time 2, mean) was 2865. The “Plasma Concentration” value (Day 5, 20 mg/kg dose PO, time 4, individual animals) was 3160 and 2040, the “Plasma Concentration” value (Day 5, 20 mg/kg dose PO, time 4, mean) was 2600 and the “Plasma Concentration” value (Day 5, 20 mg/kg dose PO, time 8, individual animals) was 2430 and 2170. The “Plasma Concentration” value (Day 5, 20 mg/kg dose PO, time 8, mean) was 2300, the AUC0-last [2] was 43.537 µg·h/mL and 16.801 µg·h/mL and the AUC(0-inf) [2] was 49.399 µg·h/mL and 2087.5 µg·h/mL. The AUCExtra [2] was 11.9% and 99.2%, the AUMCExtra [2] was 35.5% and 100% and the Cl_F [2] was 6.75 mL/min/kg and 0.160 mL/min/kg. For the same compound, the Cmax [2] was 2220 ng/mL, the MRT0-inf [2] was 11.7 h and 955 h and the MRT0-last [2] was 8.57 h and 4.03 h. The Tlast [2] was 24.0 h and 8.00 h, the T½ [2] was 7.64 h and the Vz_F [2] was 4.46 L/kg and 9.29 L/kg. The AUC0-last (Day 5, 20 mg/kg dose PO, mean) was 30.169 µg·h/mL, the AUCExtra (Day 5, 20 mg/kg dose PO, mean) was 55.6% and the AUMCExtra (Day 5, 20 mg/kg dose PO, mean) was 67.8%. For the same compound, the Cl_F (Day 5, 20 mg/kg dose PO, mean) was 3.45 mL/min/kg, the Vz_F (Day 5, 20 mg/kg dose PO, mean) was 6.87 L/kg and the “Animal body weight” value [3] was 8.22 kg and 9.18 kg. For the same compound, the “Clinical Observation” value [3] was “None”, the “Animal Body Weight, Mean” value (Day 5, Group 1, mean) was 8.70 kg and the “Animal body weight” value [4] was 9.31 kg and 8.43 kg. For the same compound, the “Clinical Observation” value [4] was “None”, the “Animal Body Weight, Mean” value (Day 5, Group 2, mean) was 8.87 kg and the “Animal body weight” value [5] was 8.88 kg and 8.11 kg. The “Clinical Observation” value [5] was “None”, the “Animal Body Weight, Mean” value (Day 5, Group 3, mean) was 8.50 kg and the “Accumulative Index of AUC0-last (Day 5/Day 1)” value (“Accumulative Index of AUC0-last” below) (dose level 5.00 mg/kg) was 1.53. For the same compound, the “Accumulative Index of Cmax (Day 5/Day 1)” value (dose level 5.00 mg/kg) was 1.57, the “Accumulative Index of AUC0-last” value (dose level 10.0 mg/kg) was 1.62 and the “Accumulative Index of Cmax (Day 5/Day 1)” value (dose level 10.0 mg/kg) was 1.31. For the same compound, the “Accumulative Index of AUC0-last” value (dose level 20.0 mg/kg) was 0.445, the “Accumulative Index of Cmax (Day 5/Day 1)” value (dose level 20.0 mg/kg) was 0.555 and the “time plasma concentration remained above the free EC50 BD2” value (all doses administered) was 24 h. The “white blood cell fraction parameters” value (day 5) was “within range” and the AUC(0-t) (male, beagle, dog, plasma, po, 5 mg/kg, Day 1, 5 mg/kg dose PO, individual animals) was 11.6 µg·h/mL.
